What was measured:
Assay type in all cases: in vivo
[1] = test system: Alopecurus myosuroides (ALOMY); assay: Pre-emergence herbicidal glasshouse test on Alopecurus myosuroides; conditions: pre-emergence; 1000 g/h; evaluated after 13 days
Method in brief: (§1)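 Herbicidal damage was rated 13 days after treatment on a five-point scale, where 5 denotes 80-100% and 1 denotes 0-19% damage. Spraying at 1000 g/h followed sowing by one day (pre-emergence) or eight days (post-emergence).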

Setaria faberi (SETFA) [2] = assay: Pre-emergence herbicidal glasshouse test on Setaria faberi; conditions: pre-emergence; 1000 g/h; evaluated after 13 days
Method in brief: as §1

[3] = test system: Echinochloa crus-galli (ECHCG); assay: Pre-emergence herbicidal glasshouse test on Echinochloa crus-galli; conditions: pre-emergence; 1000 g/h; evaluated after 13 days
Method in brief: as §1

Solanum nigrum (SOLNI) [4] = assay: Pre-emergence herbicidal glasshouse test on Solanum nigrum; conditions: pre-emergence; 1000 g/h; evaluated after 13 days
Method in brief: as §1

[5] = test system: Amaranthus retoflexus (AMARE); assay: Pre-emergence herbicidal glasshouse test on Amaranthus retoflexus; conditions: pre-emergence; 1000 g/h; evaluated after 13 days
Method in brief: as §1

[6] = test system: Ipomoea hederacea (IPOHE); assay: Pre-emergence herbicidal glasshouse test on Ipomoea hederacea; conditions: pre-emergence; 1000 g/h; evaluated after 13 days
Method in brief: as §1

[7] = test system: Alopecurus myosuroides (ALOMY); assay: Post-emergence herbicidal glasshouse test on Alopecurus myosuroides; conditions: post-emergence; 1000 g/h; evaluated after 13 days
Method in brief: as §1

Setaria faberi (SETFA) [8] = assay: Post-emergence herbicidal glasshouse test on Setaria faberi; conditions: post-emergence; 1000 g/h; evaluated after 13 days
Method in brief: as §1

[9] = test system: Echinochloa crus-galli (ECHCG); assay: Post-emergence herbicidal glasshouse test on Echinochloa crus-galli; conditions: post-emergence; 1000 g/h; evaluated after 13 days
Method in brief: as §1

Solanum nigrum (SOLNI) [10] = assay: Post-emergence herbicidal glasshouse test on Solanum nigrum; conditions: post-emergence; 1000 g/h; evaluated after 13 days
Method in brief: as §1

[11] = test system: Amaranthus retoflexus (AMARE); assay: Post-emergence herbicidal glasshouse test on Amaranthus retoflexus; conditions: post-emergence; 1000 g/h; evaluated after 13 days
Method in brief: as §1

[12] = test system: Ipomoea hederacea (IPOHE); assay: Post-emergence herbicidal glasshouse test on Ipomoea hederacea; conditions: post-emergence; 1000 g/h; evaluated after 13 days
Method in brief: as §1

Cn1ncc(-c2ccc(S(C)(=O)=O)c(COCC(F)(F)F)c2Cl)c(O)c1=O [Compound 1.049]
PRE Application ALOMY herbicidal damage (five point scale) [1]: 2 (2=20-39% damage) | PRE Application SETFA herbicidal damage (five point scale) (Setaria faberi (SETFA) [2]): 3 (3=40-59% damage) | PRE Application ECHCG herbicidal damage (five point scale) [3]: 5 (5=80-100% damage) | PRE Application SOLNI herbicidal damage (five point scale) (Solanum nigrum (SOLNI) [4]): 5 (5=80-100% damage) | PRE Application AMARE herbicidal damage (five point scale) [5]: 5 (5=80-100% damage) | PRE Application IPOHE herbicidal damage (five point scale) [6]: 1 (1=0-19% damage) | POST Application ALOMY herbicidal damage (five point scale) [7]: 5 (5=80-100% damage) | POST Application SETFA herbicidal damage (five point scale) (Setaria faberi (SETFA) [8]): 5 (5=80-100% damage) | POST Application ECHCG herbicidal damage (five point scale) [9]: 5 (5=80-100% damage) | POST Application SOLNI herbicidal damage (five point scale) (Solanum nigrum (SOLNI) [10]): 5 (5=80-100% damage) | POST Application AMARE herbicidal damage (five point scale) [11]: 5 (5=80-100% damage) | POST Application IPOHE herbicidal damage (five point scale) [12]: 5 (5=80-100% damage)

Cn1ncc(-c2ccc(S(C)(=O)=O)c(Cl)c2Cl)c(O)c1=O [Compound 1.050]
PRE Application ALOMY herbicidal damage (five point scale) [1]: 1 (1=0-19% damage) | PRE Application SETFA herbicidal damage (five point scale) (Setaria faberi (SETFA) [2]): 2 (2=20-39% damage) | PRE Application ECHCG herbicidal damage (five point scale) [3]: 5 (5=80-100% damage) | PRE Application SOLNI herbicidal damage (five point scale) (Solanum nigrum (SOLNI) [4]): 3 (3=40-59% damage) | PRE Application AMARE herbicidal damage (five point scale) [5]: 5 (5=80-100% damage) | PRE Application IPOHE herbicidal damage (five point scale) [6]: 1 (1=0-19% damage) | POST Application ALOMY herbicidal damage (five point scale) [7]: 2 (2=20-39% damage) | POST Application SETFA herbicidal damage (five point scale) (Setaria faberi (SETFA) [8]): 4 (4=60-79% damage) | POST Application ECHCG herbicidal damage (five point scale) [9]: 5 (5=80-100% damage) | POST Application SOLNI herbicidal damage (five point scale) (Solanum nigrum (SOLNI) [10]): 5 (5=80-100% damage) | POST Application AMARE herbicidal damage (five point scale) [11]: 5 (5=80-100% damage) | POST Application IPOHE herbicidal damage (five point scale) [12]: 5 (5=80-100% damage)

CCCCS(=O)(=O)c1ccccc1-c1cnn(C)c(=O)c1O [Compound 1.051]
PRE Application ALOMY herbicidal damage (five point scale) [1]: 2 (2=20-39% damage) | PRE Application SETFA herbicidal damage (five point scale) (Setaria faberi (SETFA) [2]): 1 (1=0-19% damage) | PRE Application ECHCG herbicidal damage (five point scale) [3]: 4 (4=60-79% damage) | PRE Application SOLNI herbicidal damage (five point scale) (Solanum nigrum (SOLNI) [4]): 1 (1=0-19% damage) | PRE Application AMARE herbicidal damage (five point scale) [5]: 5 (5=80-100% damage) | PRE Application IPOHE herbicidal damage (five point scale) [6]: 1 (1=0-19% damage) | POST Application ALOMY herbicidal damage (five point scale) [7]: 1 (1=0-19% damage) | POST Application SETFA herbicidal damage (five point scale) (Setaria faberi (SETFA) [8]): 2 (2=20-39% damage) | POST Application ECHCG herbicidal damage (five point scale) [9]: 2 (2=20-39% damage) | POST Application SOLNI herbicidal damage (five point scale) (Solanum nigrum (SOLNI) [10]): 5 (5=80-100% damage) | POST Application AMARE herbicidal damage (five point scale) [11]: 5 (5=80-100% damage) | POST Application IPOHE herbicidal damage (five point scale) [12]: 4 (4=60-79% damage)

Cn1ncc(-n2ccc(C(F)(F)F)c(-c3ccccc3C(F)(F)F)c2=O)c(O)c1=O [Compound 1.052]
PRE Application ALOMY herbicidal damage (five point scale) [1]: 4 (4=60-79% damage) | PRE Application SETFA herbicidal damage (five point scale) (Setaria faberi (SETFA) [2]): 4 (4=60-79% damage) | PRE Application ECHCG herbicidal damage (five point scale) [3]: 5 (5=80-100% damage) | PRE Application SOLNI herbicidal damage (five point scale) (Solanum nigrum (SOLNI) [4]): 5 (5=80-100% damage) | PRE Application AMARE herbicidal damage (five point scale) [5]: 5 (5=80-100% damage) | PRE Application IPOHE herbicidal damage (five point scale) [6]: 1 (1=0-19% damage) | POST Application ALOMY herbicidal damage (five point scale) [7]: 4 (4=60-79% damage) | POST Application SETFA herbicidal damage (five point scale) (Setaria faberi (SETFA) [8]): 5 (5=80-100% damage) | POST Application ECHCG herbicidal damage (five point scale) [9]: 5 (5=80-100% damage) | POST Application SOLNI herbicidal damage (five point scale) (Solanum nigrum (SOLNI) [10]): 5 (5=80-100% damage) | POST Application AMARE herbicidal damage (five point scale) [11]: 5 (5=80-100% damage) | POST Application IPOHE herbicidal damage (five point scale) [12]: 5 (5=80-100% damage)

Cc1ccccc1-c1c(C(F)(F)F)ccn(-c2cnn(C)c(=O)c2O)c1=O [Compound 1.053]
PRE Application ALOMY herbicidal damage (five point scale) [1]: 5 (5=80-100% damage) | PRE Application SETFA herbicidal damage (five point scale) (Setaria faberi (SETFA) [2]): 4 (4=60-79% damage) | PRE Application ECHCG herbicidal damage (five point scale) [3]: 5 (5=80-100% damage) | PRE Application SOLNI herbicidal damage (five point scale) (Solanum nigrum (SOLNI) [4]): 5 (5=80-100% damage) | PRE Application AMARE herbicidal damage (five point scale) [5]: 5 (5=80-100% damage) | PRE Application IPOHE herbicidal damage (five point scale) [6]: 2 (2=20-39% damage) | POST Application ALOMY herbicidal damage (five point scale) [7]: 5 (5=80-100% damage) | POST Application SETFA herbicidal damage (five point scale) (Setaria faberi (SETFA) [8]): 4 (4=60-79% damage) | POST Application ECHCG herbicidal damage (five point scale) [9]: 5 (5=80-100% damage) | POST Application SOLNI herbicidal damage (five point scale) (Solanum nigrum (SOLNI) [10]): 5 (5=80-100% damage) | POST Application AMARE herbicidal damage (five point scale) [11]: 5 (5=80-100% damage) | POST Application IPOHE herbicidal damage (five point scale) [12]: 5 (5=80-100% damage)

Cn1ncc(-n2ccc(C(F)(F)F)c(-c3ccccc3)c2=O)c(O)c1=O [Compound 1.054]
PRE Application ALOMY herbicidal damage (five point scale) [1]: 5 (5=80-100% damage) | PRE Application SETFA herbicidal damage (five point scale) (Setaria faberi (SETFA) [2]): 5 (5=80-100% damage) | PRE Application ECHCG herbicidal damage (five point scale) [3]: 5 (5=80-100% damage) | PRE Application SOLNI herbicidal damage (five point scale) (Solanum nigrum (SOLNI) [4]): 5 (5=80-100% damage) | PRE Application AMARE herbicidal damage (five point scale) [5]: 5 (5=80-100% damage) | PRE Application IPOHE herbicidal damage (five point scale) [6]: 3 (3=40-59% damage) | POST Application ALOMY herbicidal damage (five point scale) [7]: 5 (5=80-100% damage) | POST Application SETFA herbicidal damage (five point scale) (Setaria faberi (SETFA) [8]): 5 (5=80-100% damage) | POST Application ECHCG herbicidal damage (five point scale) [9]: 5 (5=80-100% damage) | POST Application SOLNI herbicidal damage (five point scale) (Solanum nigrum (SOLNI) [10]): 5 (5=80-100% damage) | POST Application AMARE herbicidal damage (five point scale) [11]: 5 (5=80-100% damage) | POST Application IPOHE herbicidal damage (five point scale) [12]: 4 (4=60-79% damage)

Cn1ncc(-c2ccccc2[S+]([O-])C(F)(F)F)c(O)c1=O (stereo not drawn) [Compound 1.055]
PRE Application ALOMY herbicidal damage (five point scale) [1]: 1 (1=0-19% damage) | PRE Application SETFA herbicidal damage (five point scale) (Setaria faberi (SETFA) [2]): 1 (1=0-19% damage) | PRE Application ECHCG herbicidal damage (five point scale) [3]: 2 (2=20-39% damage) | PRE Application SOLNI herbicidal damage (five point scale) (Solanum nigrum (SOLNI) [4]): 4 (4=60-79% damage) | PRE Application AMARE herbicidal damage (five point scale) [5]: 5 (5=80-100% damage) | PRE Application IPOHE herbicidal damage (five point scale) [6]: 2 (2=20-39% damage) | POST Application ALOMY herbicidal damage (five point scale) [7]: 1 (1=0-19% damage) | POST Application SETFA herbicidal damage (five point scale) (Setaria faberi (SETFA) [8]): 1 (1=0-19% damage) | POST Application ECHCG herbicidal damage (five point scale) [9]: 4 (4=60-79% damage) | POST Application SOLNI herbicidal damage (five point scale) (Solanum nigrum (SOLNI) [10]): 5 (5=80-100% damage) | POST Application AMARE herbicidal damage (five point scale) [11]: 5 (5=80-100% damage) | POST Application IPOHE herbicidal damage (five point scale) [12]: 4 (4=60-79% damage)
